The text below walks through data of patent US9758486B1 (priority 2017, dated 2017).

Where two headings read alike, the source gives them in different places.

For experiment [1], the system named is human brain astrocytoma cells (U-251). The experiment in a line: MTT tumor cell proliferation inhibition test, U-251. It is filed as cell-based. Conditions: read-out: Half Inhibitory Concentration IC50, U-251. As to the method: (§1) The compounds of the present invention were subjected to tumor cell proliferation inhibition test, and conventional MTT method was used.
(§2) Cell lines: human kidney cancer cells (A-498), human lung cancer cells (A-549), human brain astrocytoma cells (U-251). The culture medium was DMEM+15% NBS+double antibody.
(§3) Sample solution preparation: after dissolving with DMSO (Merck), PBS (−) was added to obtain 100 μmol/L solution or homogeneous suspension. The solution was diluted with PBS (−) in DMSO to a final concentration of 0.1, 1, 10, 20, 40, 60, 80, 100 μmol/L.
(§4) Gossypol was used as control solution, prepared under the same condition.
(§5) Cell culture: adherent growth Tumor cells were cultured in 1640 medium containing 10% inactivated neonatal bovine serum and penicillin, streptomycin (1 million U/L), placed in carbon dioxide incubator at 37° C., 5% CO2, and saturated humidity. Cells were treated serially passaged 2-3 times. The first culture was washed with PBS 2 times, and digested with trypsin. Fresh culture medium was added evenly, cells were adjusted to a appropriate concentration and transferred into a new culture flask. Cell in an exponential phase were chosen for the tests.
(§6) MTT Assay for Cell Viability and IC50 Determination:
(§7) Experimental Principle: Living cells mitochondria in the dehydrogenase can reduce yellow MTT to water-insoluble blue-violet product MT (MTT formazan), deposited in the cells. The amount of production is proportional to the number of living cells. […] DMSO can dissolve blue violet crystals, and the color depth is proportional to the amount contained, so the absorbance measured by the microplate reader can reflect the cell viability.
(§8) Methods: The exponential phase cells were digested and counted and seeded in 96-well plates at a density of 2×10^4/mL at 100 μl per well. After 24 hours of incubation, the cells to be tested were treated with 0.1, 1, 10, 20, 40, 60, 80, 100 μmol/L of the compounds. Each experimental group had 5 wells in each concentration, and the culture medium containing 0.4% DMSO was used as control. After 48 hours, the supernatant was discarded, and 100 μl of MTT ((2-(4,5-dimethyl-2-thiazolyl)-3,5-diphenyl-2H-[…]) (1 mg/mL) was added to each well. After another 4 hours, the supernatant was discarded, and 100 μl of DMSO was added to each well. After mixing, the absorbance was measured at 570 nm using a microplate reader. An IC50 calculation software was used to determine the half inhibitory concentration (IC50).

For experiment [2], the system named is human lung cancer cells (A-549). The experiment in a line: MTT tumor cell proliferation inhibition test, A-549. It is filed as cell-based. Conditions: read-out: Half Inhibitory Concentration IC50, A-549. As to the method: as §1, §2, §3, §4, §5, §6, §7, §8
The subject of experiment [3] is human kidney cancer cells (A-498). The experiment in a line: MTT tumor cell proliferation inhibition test, A-498. It is filed as cell-based. Conditions: read-out: Half Inhibitory Concentration IC50, A-498. On the procedure:
as §1, §2, §3, §4, §5, §6, §7, §8

The subject of experiment [4] is tumor cells (A-498, A-549, U-251). The experiment in a line: MTT tumor cell proliferation inhibition test, summary in words over the cell lines tested. Conditions: summary of Table 1. It is filed as cell-based, human. On the procedure: as §1, §2, §8
These compounds can be used for the study of antitumor agents.

Where [5] appears, read: U-251 cells, MTT, 48 hours treatment.
[6] abbreviates: A549, A-549 cells, MTT, 48 hours treatment.
[7] abbreviates: A498, A-498 cells, MTT, 48 hours treatment.

Consider `C=CC1=NN(c2c(C)cccc2Cl)C(=O)/C1=C\c1c(O)c(O)c(C(C)C)c2cc(C)c(-c3c(C)cc4c(C(C)C)c(O)c(O)c(C=O)c4c3O)c(O)c12` [L, (Z)-8′-((1-(2-chloro-6-methylphenyl)-5-oxo-3-vinyl-1H-pyrazol-4(5H)-ylidene)methyl)-1,1′,6,6′,7,7′-hexahydroxy-5,5′-diisopropyl-3,3′-dimethyl-[2,2′-binaphthalene]-8-carbaldehyde], for which the IC50 in experiment [1] (setting [5]), in experiment [2] (setting [6]) and in experiment [3] (setting [7]) was more than 100 µM throughout.

As for `C=CC1=NN(c2ccc(C)cc2)C(=O)/C1=C\c1c(O)c(O)c(C(C)C)c2cc(C)c(-c3c(C)cc4c(C(C)C)c(O)c(O)c(C=O)c4c3O)c(O)c12` [Compound I, (Z)-1,1′,6,6′,7,7′-hexahydroxy-5,5′-diisopropyl-3,3′-dimethyl-8′-((5-oxo-1-(p-tolyl)-3-vinyl-1H-pyrazol-4(5H)-ylidene)methyl)-[2,2′-binaphthalene]-8-carbaldehyde], the IC50 in experiment [1] (setting [5]) came out at 20.7 ± 0.84 µM; in experiment [2] (setting [6]), 18.1 ± 0.72 µM; in experiment [3] (setting [7]), 11.7 ± 0.65 µM. Moreover, the “antitumor activities (statement in words)” value (“antitumor activities” below) in experiment [4] is recorded as “good antitumor activities in different cell lines”.

In the case of `Cc1cc2c(C(C)C)c(O)c(O)c(C=O)c2c(O)c1-c1c(C)cc2c(C(C)C)c(O)c(O)c(C=O)c2c1O` [Gossypol], the IC50 in experiment [1] (setting [5]) is 20.2 ± 1.3 µM; in experiment [2] (setting [6]) it was 14.9 ± 0.64 µM; in experiment [3] (setting [7]) it was 11.3 ± 0.28 µM.

In the case of `C=CC1=NN(c2ccccc2)C(=O)/C1=C\c1c(O)c(O)c(C(C)C)c2cc(C)c(-c3c(C)cc4c(C(C)C)c(O)c(O)c(C=O)c4c3O)c(O)c12` [H, (Z)-1,1′,6,6′,7,7′-hexahydroxy-5,5′-diisopropyl-3,3′-dimethyl-8′-((5-oxo-1-phenyl-3-vinyl-1H-pyrazol-4(5H)-ylidene)methyl)-[2,2′-binaphthalene]-8-carbaldehyde], the results for the IC50 in experiment [1] (setting [5]), in experiment [2] (setting [6]) and in experiment [3] (setting [7]) were 78.7 ± 2.02 µM, more than 100 µM and more than 100 µM, respectively.

For the compound `CC1=NN(c2c(C)cccc2Cl)C(=O)/C1=C\c1c(O)c(O)c(C(C)C)c2cc(C)c(-c3c(C)cc4c(C(C)C)c(O)c(O)c(C=O)c4c3O)c(O)c12` [K, (Z)-8′-((1-(2-chloro-6-methylphenyl)-3-methyl-5-oxo-1H-pyrazol-4(5H)-ylidene)methyl)-1,1′,6,6′,7,7′-hexahydroxy-5,5′-diisopropyl-3,3′-dimethyl-[2,2′-binaphthalene]-8-carbaldehyde], the IC50 is 11.5 ± 1.32 µM in experiment [1] (U-251, 48 h); more than 100 µM in experiment [2] (A549, 48 h); more than 100 µM in experiment [3] (A498, 48 h).

Take `C=CC1=NN(c2ccc(Cl)cc2)C(=O)/C1=C\c1c(O)c(O)c(C(C)C)c2cc(C)c(-c3c(C)cc4c(C(C)C)c(O)c(O)c(C=O)c4c3O)c(O)c12` [J, (Z)-8′-((1-(4-chlorophenyl)-5-oxo-3-vinyl-1H-pyrazol-4(5H)-ylidene)methyl)-1,1′,6,6′,7,7′-hexahydroxy-5,5′-diisopropyl-3,3′-dimethyl-[2,2′-binaphthalene]-8-carbaldehyde]: the IC50 in experiment [1] (setting [5]) stood at 26.2 ± 1.15 µM; in experiment [2] (setting [6]), 12.7 ± 1.12 µM; in experiment [3] (setting [7]), 13.8 ± 0.85 µM. Also, in experiment [4], the “antitumor activities” value is reported as “good antitumor activities in different cell lines”.

With `COC1=NN(c2ccc(OC)cc2)C(=O)/C1=C\c1c(O)c(O)c(C(C)C)c2cc(C)c(-c3c(C)cc4c(C(C)C)c(O)c(O)c(C=O)c4c3O)c(O)c12` [F], the IC50 in experiment [1] (setting [5]) is 58.2 ± 2.1 µM; in experiment [2] (setting [6]), 65.9 ± 2.84 µM; in experiment [3] (setting [7]), more than 100 µM.

With `COC1=NN(c2ccc(Cl)cc2)C(=O)/C1=C\c1c(O)c(O)c(C(C)C)c2cc(C)c(-c3c(C)cc4c(C(C)C)c(O)c(O)c(C=O)c4c3O)c(O)c12` [G, (Z)-8′-((1-(4-chlorophenyl)-3-methoxy-5-oxo-1H-pyrazol-4(5H)-ylidene)methyl)-1,1′,6,6′,7,7′-hexahydroxy-5,5′-diisopropyl-3,3′-dimethyl-[2,2′-binaphthalene]-8-carbaldehyde], the IC50 in experiment [1] (setting [5]) was more than 100 µM; in experiment [2] (setting [6]) it was 43.4 ± 1.21 µM; in experiment [3] (setting [7]), 26.5 ± 1.02 µM. For the same compound, the “antitumor activities” value in experiment [4] was “good antitumor activities in different cell lines”.

For `CC1=NN(c2ccccc2)C(=O)/C1=C\c1c(O)c(O)c(C(C)C)c2cc(C)c(-c3c(C)cc4c(C(C)C)c(O)c(O)c(C=O)c4c3O)c(O)c12` [Compound A, (Z)-1,1′,6,6′,7,7′-hexahydroxy-5,5′-diisopropyl-3,3′-dimethyl-8′-((3-methyl-5-oxo-1-phenyl-1H-pyrazol-4(5H)-ylidene)methyl)-[2,2′-binaphthalene]-8-carbaldehyde], the IC50 in experiment [1] (U-251, 48 h) stood at 10.4 ± 0.67 µM; in experiment [2] (A549, 48 h) it was 10.5 ± 0.92 µM; in experiment [3] (A498, 48 h) it was 11.4 ± 1.03 µM. For the same compound, the “antitumor activities” value in experiment [4] is reported as “good antitumor activities in all three cell lines tested”.

Turning to `CC1=NN(c2ccc(Cl)cc2)C(=O)/C1=C\c1c(O)c(O)c(C(C)C)c2cc(C)c(-c3c(C)cc4c(C(C)C)c(O)c(O)c(C=O)c4c3O)c(O)c12` [D, (Z)-8′-((1-(4-chlorophenyl)-3-methyl-5-oxo-1H-pyrazol-4(5H)-ylidene)methyl)-1,1′,6,6′,7,7′-hexahydroxy-5,5′-diisopropyl-3,3′-dimethyl-[2,2′-binaphthalene]-8-carbaldehyde], the figures for the IC50 in experiment [1] (setting [5]), in experiment [2] (setting [6]) and in experiment [3] (setting [7]) were more than 100 µM, 36.9 ± 0.83 µM and 24.3 ± 0.91 µM, respectively.

On to `CC1=NN(c2ccc(C)cc2)C(=O)/C1=C\c1c(O)c(O)c(C(C)C)c2cc(C)c(-c3c(C)cc4c(C(C)C)c(O)c(O)c(C=O)c4c3O)c(O)c12` [B, (Z)-1,1′,6,6′,7,7′-hexahydroxy-5,5′-diisopropyl-3,3′-dimethyl-8′-((3-methyl-5-oxo-1-(p-tolyl)-1H-pyrazol-4(5H)-ylidene)methyl)-[2,2′-binaphthalene]-8-carbaldehyde], for which the IC50 in experiment [2] (setting [6]) amounted to 78.4 ± 2.65 µM; in experiment [3] (setting [7]) it was 37.6 ± 2.23 µM.

Consider `COc1ccc(N2N=C(C)/C(=C/c3c(O)c(O)c(C(C)C)c4cc(C)c(-c5c(C)cc6c(C(C)C)c(O)c(O)c(C=O)c6c5O)c(O)c34)C2=O)cc1` [C], for which the IC50 in experiment [1] (setting [5]) is more than 100 µM; in experiment [2] (setting [6]) it was more than 100 µM; in experiment [3] (setting [7]), 25.3 ± 0.95 µM.

`COC1=NN(c2ccccc2)C(=O)/C1=C\c1c(O)c(O)c(C(C)C)c2cc(C)c(-c3c(C)cc4c(C(C)C)c(O)c(O)c(C=O)c4c3O)c(O)c12` [E, (Z)-1,1′,6,6′,7,7′-hexahydroxy-5,5′-diisopropyl-8′-((3-methoxy-5-oxo-1-phenyl-1H-pyrazol-4(5H)-ylidene)methyl)-3,3′-dimethyl-[2,2′-binaphthalene]-8-carbaldehyde]: the IC50 in experiment [1] (setting [5]) turned out to be 26.1 ± 1.8 µM; in experiment [2] (setting [6]) it was 26.7 ± 1.12 µM; in experiment [3] (setting [7]), 17.8 ± 0.95 µM. For the same compound, in experiment [4], the “antitumor activities” value was “good antitumor activities in different cell lines”.
